Results taken from ChEMBL document CHEMBL5058564, “EUbOPEN Chemogenomics Library 2 (Incucyte)” (2022).

Experiments:
Type in all cases: toxicity, cell-based
[1] = tested on: HEK-293T; assay: Incucyte cell viability with HEK293T; conditions: human, 10 µM, compound concentration 10 uM
[2] = tested on: Fibroblast; assay: Incucyte cell viability with human fibroblast; conditions: 10 µM, compound concentration 10 uM
[3] = tested on: U2OS; assay: Incucyte cell viability with U2OS; conditions: human, 10 µM, compound concentration 10 uM
[4] = 0 h, replicate number 2, timepoint 0 hours
[5] = 6 h, replicate number 1, timepoint 6 hours
[6] = 12 h, replicate number 1, timepoint 12 hours
[7] = 18 h, replicate number 1, timepoint 18 hours
[8] = 18 h, replicate number 2, timepoint 18 hours
[9] = 24 h, replicate number 1, timepoint 24 hours
[10] = 0 h, replicate number 1, timepoint 0 hours
[11] = 6 h, replicate number 2, timepoint 6 hours
[12] = 12 h, replicate number 2, timepoint 12 hours
[13] = 24 h, replicate number 2, timepoint 24 hours
Further: unitless GR value; below 1 slowed growth and below 0 cell loss.

SMILES | Growth Rate [1, 4] | Growth Rate [1, 5] | Growth Rate [1, 7] | Growth Rate [1, 9] | Growth Rate [2, 10] | Growth Rate [2, 4] | Growth Rate [2, 5] | Growth Rate [2, 11] | Growth Rate [2, 6] | Growth Rate [2, 7] | Growth Rate [2, 8] | Growth Rate [2, 9] | Growth Rate [3, 10] | Growth Rate [3, 8] | Growth Rate [1, 10] | Growth Rate [3, 5] | Growth Rate [3, 6] | Growth Rate [3, 7] | Growth Rate [3, 9] | Growth Rate [3, 13] | further results
CCOc1c2c(c(OCC)c3ncccc13)CN(c1ccc(CS(=O)(=O)NC(=O)Cc3ccccc3OC)cc1C)C2=O | 0.82 | 0.48 | 0.9 | 0.87 | 0.27 | 0.58 | 0.32 | -0.34 | 0.49 | 0.23 | -0.18 | -0.06 | -0.69 | 1 | – | – | – | – | – | – | Growth Rate [1, 6]: 0.83; Growth Rate [1, 8]: 1; Growth Rate [2, 12]: -0.12; Growth Rate [2, 13]: -0.4; Growth Rate [3, 11]: 0.75
C[C@]1(O)CC[C@H]2[C@@H]3CCC4=CC(=O)CCC4=C3C=C[C@@]21C [METRIBOLONE] | 0.59 | – | 1 | 0.98 | 0.89 | 0.22 | 0.66 | 0.85 | 0.98 | – | – | 0.98 | – | 0.92 | 0.16 | 0.83 | 0.56 | 0.54 | 0.76 | 0.86 | Growth Rate [3, 4]: 0.07; Growth Rate [3, 12]: 0.92
Cc1cc(Cn2nnc3c(-c4ccco4)nc(N)nc32)ccc1N [VIPADENANT] | 0.5 | – | – | – | 0.03 | 0.35 | 0.45 | – | 0.08 | 0.23 | 0.81 | 0.17 | – | – | 0.37 | – | – | 0.79 | – | – | Growth Rate [1, 11]: 0.84; Growth Rate [1, 12]: 0.95; Growth Rate [3, 4]: -1
O=C(Nc1cc(-c2cn[nH]c2)ccc1N1CCOCC1)c1ccc(-c2ccc3ncccc3c2)o1 | 0.28 | -0.01 | 0 | 0.15 | 0.62 | -0.67 | – | – | 0.82 | 0.43 | 0.89 | 0.3 | 0.53 | 0.39 | – | 0.9 | 0.6 | 0.57 | 0.7 | 0.26 | Growth Rate [1, 11]: 0.26; Growth Rate [1, 6]: -0.14; Growth Rate [1, 12]: 0.02; Growth Rate [1, 8]: 0.07; Growth Rate [1, 13]: 0.04; Growth Rate [2, 12]: 0.89; Growth Rate [2, 13]: 0.83
Nc1ncnc2c1ncn2[C@@H]1O[C@H](CO)[C@@H](O)[C@H]1O [ADENOSINE] | -0.36 | – | – | 0.79 | 0.25 | 0.19 | -0.04 | – | 0.59 | 0.7 | – | 0.58 | 0.54 | – | -0.6 | 0.47 | 0.84 | 0.77 | – | – | Growth Rate [1, 8]: 0.98
COc1ccccc1N1CCN(CCCCNC(=O)c2ccc3ccccc3c2)CC1.Cl | 0.97 | 0.59 | 0.54 | 0.56 | 0.79 | -0.14 | -0.59 | 0.14 | 0.23 | – | 0.09 | -0.24 | 0.06 | 0.97 | – | 0.51 | 0.58 | 0.77 | 0.81 | 0.92 | Growth Rate [1, 11]: 0.65; Growth Rate [1, 12]: 0.83; Growth Rate [1, 13]: 0.66; Growth Rate [2, 12]: -0.06; Growth Rate [3, 11]: 0.78; Growth Rate [3, 12]: 0.96
CC1=C(C)C(=O)C(C(C)(C)CC(=O)N(CCCCSC[C@H]2O[C@@H](n3cnc4c(N)ncnc43)[C@H](O)[C@@H]2O)Cc2cccc(-c3ccc(Cl)cc3)c2)=C(C)C1=O | -1 | 0.57 | 0.17 | 0.16 | 0.23 | -0.71 | -0.29 | 0.84 | 0.78 | – | – | – | – | 0.91 | -0.9 | 0.21 | 0.36 | 0.51 | 0.53 | 0.95 | Growth Rate [1, 6]: 0.2; Growth Rate [3, 11]: 0.98; Growth Rate [3, 12]: 0.93
